# Molecular target: T1, human H3R (Homo sapiens, UniProt Q9Y5N1)
# T1 construct: expressed in transfected cells; host or cells: CHO cells (membranes)
# Assay: Binding assay with 3H-(R)α-methylhistamine (competition binding)
# Settings: membrane of the human H3R-CHO cell line, 3H(R)α-methylhistamine 1 nM, Ki calculated from IC50 by Cheng-Prusoff
# Experimental: Binding assay with ^3H—(R)α-methylhistamine
# Saturation binding experiments were performed using HR3-CHO membranes prepared as described in Takahashi, K, Tokita, S., Kotani, H. (2003) J. Pharmacol. Exp. Therapeutics 307, 213-218.
# An appropriate amount of membrane (60 to 80 μg protein/well) was incubated with increasing concentrations of ^3H(R)α-Methylhistamine di-hydrochloride (0.10 to 10 nM). Non specific binding was determined using a 200 fold excess of cold (R)α-Methylhistamine dihydrobromide (500 nM final concentration). The incubation was carried out at room temperature (in deep-well plates shaking for three hours). The final volume in each well was 250 μl. The incubation was followed by rapid filtration on GF/B filters (pre-soaked with 100 μl of 0.5% PEI in Tris 50 mM shaking at 200 rpm for two hours). The filtration was made using a cell-harvester and the filter plates were then washed five times with ice cold washing buffer containing 0.5 M NaCl. After harvesting, the plates were dried at 55° C. for 60 min, then we added scintillation fluid (Microscint 40, 40 microl in each well) and the amount of radioactivity on the filter was determined in Packard top-counter after shaking the plates for two hours at 200 rpm at room temperature.
# Binding Buffer: 50 mM Tris-HCl pH 7.4 and 5 mM MgCl2×6H2O pH 7.4. Washing Buffer: 50 mM Tris-HCl pH 7.4 and 5 mM MgCl2×6H2O and 0.5 M NaCl pH 7.4. Indirect measurement of affinity of H3R inverse agonists: twelve increasing concentrations (ranging from 10 μM to 0.3 nM) of the selected compounds were always tested in competition binding experiments using membrane of the human H3R—CHO cell line. An appropriate amount of protein, e.g. approximately 500 cpm binding of RAMH at Kd, were incubated for 1 hour at room temperature in 250 μl final volume in 96-well plates in presence of ^3H(R)α-methylhistamine (1 nM final concentration=Kd). Non-specific binding was determined using a 200 fold excess of cold (R)α-methylhistamine dihydrobromide.
# All compounds were tested at a single concentration in duplicate. […] The concentration at which 50% inhibition of the radioligand ^3H(R)α-methylhistamine is obtained (the IC50) is determined from the linear regression of a plot of the logarithm of the concentration versus percent inhibition measured for the different concentrations. Ki's were calculated from IC50 based on Cheng-Prusoff equation (Cheng, Y, Prusoff, W H (1973) Biochem Pharmacol 22, 3099-3108): Ki=IC50/[1+D/Kd] wherein D is the concentration of the radioligand and Kd is the binding constant for the radioligand binding to the receptor under the conditions used in the competition experiment.
# T1 sequence (Q9Y5N1 whole entry): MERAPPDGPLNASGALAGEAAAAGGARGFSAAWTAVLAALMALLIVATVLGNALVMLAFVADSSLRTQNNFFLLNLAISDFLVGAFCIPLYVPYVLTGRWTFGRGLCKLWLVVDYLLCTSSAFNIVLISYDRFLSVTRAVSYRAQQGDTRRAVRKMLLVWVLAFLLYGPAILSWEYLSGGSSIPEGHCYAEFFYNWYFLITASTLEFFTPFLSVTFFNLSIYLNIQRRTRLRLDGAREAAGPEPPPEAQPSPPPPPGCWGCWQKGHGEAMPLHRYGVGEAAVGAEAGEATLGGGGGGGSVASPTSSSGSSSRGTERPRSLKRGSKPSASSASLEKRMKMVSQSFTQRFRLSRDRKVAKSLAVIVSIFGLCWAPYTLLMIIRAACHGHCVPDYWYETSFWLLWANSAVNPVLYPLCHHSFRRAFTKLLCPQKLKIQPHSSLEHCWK
row,Structure (SMILES),Ki [µM]
1,"CC(C)CC(=O)N1CCc2cc(OC3CCN(C(C)C)CC3)sc2C1 [Example 64, 1-[2-(1-isopropyl-piperidin-4-yloxy)-4,7-dihydro-5H-thieno[2,3-c]pyridin-6-yl]-3-methyl-butan-1-one]",0.0131
2,"CC(C)CN1CCC(Oc2cc3c(s2)CN(C(=O)CC(C)(C)C)CC3)CC1 [Example 44, 1-[2-(1-isobutyl-piperidin-4-yloxy)-4,7-dihydro-5H-thieno[2,3-c]pyridin-6-yl]-3,3-dimethyl-butan-1-one]",0.0417
3,"Cc1ccc(S(=O)(=O)N2CCc3cc(OC4CCN(C(C)C)C4)sc3C2)cc1 (stereo not drawn) [Example 94, 2-(1-isopropyl-pyrrolidin-3-yloxy)-6-(toluene-4-sulfonyl)-4,5,6,7-tetrahydro-thieno[2,3-c]pyridine]",0.0643

# The remaining molecules from weak to strong by Ki, led by results:
row,Ki [µM],Structure (SMILES)
1,0.0409,"CC(C)(C)CC(=O)N1CCc2cc(OCCCN3CCCC3)sc2C1 [Example 20, 3,3-dimethyl-1-[2-(3-pyrrolidin-1-yl-propoxy)-4,7-dihydro-5H-thieno[2,3-c]pyridin-6-yl]-butan-1-one]"
2,0.0336,"O=S(=O)(c1ccccc1)N1CCc2cc(OCCCN3CCCC3)sc2C1 [Example 32, 6-benzenesulfonyl-2-(3-pyrrolidin-1-yl-propoxy)-4,5,6,7-tetrahydro-thieno[2,3-c]pyridine]"
3,0.0313,"O=C(c1cccc(F)c1)N1CCc2cc(OCCCN3CCCCC3)sc2C1 [Example 10, (3-fluoro-phenyl)-[2-(3-piperidin-1-yl-propoxy)-4,7-dihydro-5H-thieno[2,3-c]pyridin-6-yl]-methanone]"

# Reference: patent US20080146559A1, “4,5,6,7-Tetrahydro-Thieno [2,3-C] Pyridine Derivatives” (priority 2006, published 2008)
